Experimental data as given in patent publication US20240270762A1, “PENICILLIN-BINDING PROTEIN INHIBITORS” (priority 2021, published 2024).
Converted amounts (≈) assume the structure as drawn.

Legend:
[1] = test system: P. aeruginosa (ΔmexAB-oprM); test: Broth microdilution MIC in CAMHB; type: cell-based; conditions: Pseudomonas aeruginosa; read-out: MIC P. aeruginosa ΔmexAB-oprM
P. aeruginosa ATCC 35151 = test: microbe, parasite or virus in culture; type: cell-based; conditions: Pseudomonas aeruginosa, ATCC35151, read-out: MIC P. aeruginosa ATCC 35151
K. pneumoniae SI-117 = test: microbe, parasite or virus in culture; type: cell-based; conditions: Klebsiella pneumoniae, SI117, read-out: MIC K. pneumoniae SI-117
K. pneumoniae 848844 = test: microbe, parasite or virus in culture; type: cell-based; conditions: Klebsiella pneumoniae, 848844, read-out: MIC K. pneumoniae 848844
N. gonorrhoeae WHO X = test: Liquid broth MIC in Fastidious broth; conditions: Neisseria gonorrhoeae, read-out: Minimum Inhibitory Concentration (MIC), N. gonorrhoeae WHO X
Procedure: Liquid broth-based assays were used for antibacterial testing of PBP inhibitors in Neisseria gonorrhoeae. Briefly, cryo-preserved bacterial cultures of clinical strains were streaked for isolation on Chocolate Agar (72 g/L (2×) GC Agar Base (BD #228950) and 2% (2×) Hemoglobin was autoclaved at 121° C. for 20 minutes to sterilize. Once cooled to ˜50° C. the 2×GC Agar Base and 2× Hemoglobin solutions are combined and 1% IsoVitaleX Enrichment (BD #211876) was added to the solution). Strains were incubated at 36° C. and 5% CO2 to allow growth of colonies, 24 hours before inoculum preparation. 2-fold serial dilutions of test compounds were conducted in a 96 well plate with a final volume of 75 μL per well at 2-fold the final desired concentration in Fastidious broth (Remel #R07664). For preparation of assay inoculum, a direct suspension was prepared by aseptically swabbing 10-15 colonies from agar plates into culture tubes containing 2 mL of fresh sterile saline. After the dilution plates were set up, direct suspensions were then diluted in a cuvette containing sterile saline and the optical density was measured at 600 nm. Inocula were diluted such that 75 μL of this culture in Fastidious broth results in a starting bacterial concentration of 5×10^5 CFU/mL when added to the dilution plates. The plates were incubated for ˜24 hours at 36° C. and 5% CO2.

N. gonorrhoeae WHO Q = test: Liquid broth MIC in Fastidious broth; conditions: Neisseria gonorrhoeae, read-out: Minimum Inhibitory Concentration (MIC), N. gonorrhoeae WHO Q
N. gonorrhoeae WHO Z = test: Liquid broth MIC in Fastidious broth; conditions: Neisseria gonorrhoeae, read-out: Minimum Inhibitory Concentration (MIC), N. gonorrhoeae WHO Z
N. gonorrhoeae FA1090 = test: Liquid broth MIC in Fastidious broth; conditions: Neisseria gonorrhoeae, FA1090, read-out: Minimum Inhibitory Concentration (MIC), N. gonorrhoeae FA 1090
A. baumannii ATCC 19606 = test: microbe, parasite or virus in culture; type: cell-based; conditions: Acinetobacter baumannii, ATCC19606, read-out: MIC, A. baumannii ATCC 19606
E. coli AG100A = test: Broth microdilution MIC in CAMHB; type: cell-based; conditions: Escherichia coli, read-out: MIC E. coli AG100A
E. coli AG100 = test: microbe, parasite or virus in culture; type: cell-based; conditions: Escherichia coli, AG100, read-out: MIC E. coli AG100
N. gonorrhoeae WHO L = test: Liquid broth MIC in Fastidious broth; conditions: Neisseria gonorrhoeae, read-out: Minimum Inhibitory Concentration (MIC), N. gonorrhoeae WHO L
N. gonorrhoeae WHO M = test: Liquid broth MIC in Fastidious broth; conditions: Neisseria gonorrhoeae, read-out: Minimum Inhibitory Concentration (MIC), N. gonorrhoeae WHO M
E. coli 901C = test: microbe, parasite or virus in culture; type: cell-based; conditions: Escherichia coli, read-out: MIC E. coli 901C
[2] = target: T1, PBP3 from Pseudomonas aeruginosa (PAO1) (Pseudomonas aeruginosa, UniProt G3XD46); test: Bocillin-FL fluorescence polarization competition binding, P. aeruginosa PBP3; conditions: Binding affinity to P. aeruginosa PBP3; fluorescence polarization competition binding assay using Bocillin-FL; read-out: P. aeruginosa PBP3 Potency
T1 construct: made in house
How it was run: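 Purified PBP was preincubated with inhibitor (E. coli PBP3 1.5 μM, 30 min; P. aeruginosa PBP3 0.75 μM, A. baumannii PBP3 0.2 μM and PBP1a 1 μM, 15 min), then Bocillin-FL (0.1 μM; 0.05 μM for PBP1a) added and FP read up to 60 min. EC50 = 50% loss of bound probe.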

[3] = test system: N. gonorrhoeae ATCC 49226; test: Liquid broth MIC in Fastidious broth; conditions: Neisseria gonorrhoeae, ATCC49226, read-out: Minimum Inhibitory Concentration (MIC), N. gonorrhoeae ATCC 49226

T1 sequence (G3XD46 whole entry): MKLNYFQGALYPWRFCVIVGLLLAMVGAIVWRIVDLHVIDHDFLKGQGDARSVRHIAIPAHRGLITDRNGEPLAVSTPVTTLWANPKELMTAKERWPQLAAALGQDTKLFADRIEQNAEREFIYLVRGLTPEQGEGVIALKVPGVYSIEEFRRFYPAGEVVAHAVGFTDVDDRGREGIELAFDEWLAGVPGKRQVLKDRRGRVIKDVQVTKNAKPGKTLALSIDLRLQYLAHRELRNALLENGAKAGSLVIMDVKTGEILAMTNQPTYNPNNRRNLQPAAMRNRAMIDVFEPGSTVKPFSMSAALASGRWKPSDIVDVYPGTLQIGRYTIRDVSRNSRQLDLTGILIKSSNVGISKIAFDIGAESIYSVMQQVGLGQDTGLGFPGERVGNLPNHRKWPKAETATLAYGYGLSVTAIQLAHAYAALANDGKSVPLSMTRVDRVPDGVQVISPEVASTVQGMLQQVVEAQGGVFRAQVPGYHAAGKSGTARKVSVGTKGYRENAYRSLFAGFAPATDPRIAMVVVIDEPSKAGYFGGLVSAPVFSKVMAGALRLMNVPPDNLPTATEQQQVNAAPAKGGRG

SMILES	MIC [1] [µg/mL]	MIC (P. aeruginosa ATCC 35151) [µg/mL]	MIC (K. pneumoniae SI-117) [µg/mL]	MIC (K. pneumoniae 848844) [µg/mL]	MIC (N. gonorrhoeae WHO X) [µg/mL]	MIC (N. gonorrhoeae WHO Q) [µg/mL]	MIC (N. gonorrhoeae WHO Z) [µg/mL]	MIC (N. gonorrhoeae FA1090) [µg/mL]	MIC (A. baumannii ATCC 19606) [µg/mL]	MIC (E. coli AG100A) [µg/mL]	MIC (E. coli AG100) [µg/mL]	MIC (N. gonorrhoeae WHO L) [µg/mL]	MIC (N. gonorrhoeae WHO M) [µg/mL]	MIC (E. coli 901C) [µg/mL]	IC50 [2] [µM]	MIC [3] [µg/mL]
CC(=O)N1CCC[C@H]1C(=O)NC(C(=O)N[C@H]1Cc2cccc(C(=O)O)c2OB1O)c1ccc(P(=O)(O)O)cc1 (stereo partly drawn) [Example 65, (3R)-3-(2-((S)-1-acetylpyrrolidine-2-carboxamido)-2-(4-phosphonophenyl)acetamido)-2-hydroxy-3,4-dihydro-2H-benzo[e][1,2]oxaborinine-8-carboxylic acid]	> 128	8 to 16 (≈ 14.3 to 28.6 µM)	> 128	> 128	16 to 32 (≈ 28.6 to 57.2 µM)	16 to 32 (≈ 28.6 to 57.2 µM)	16 to 32 (≈ 28.6 to 57.2 µM)	4 to 8 (≈ 7.15 to 14.3 µM)	> 128	> 128	> 128	16 to 32 (≈ 28.6 to 57.2 µM)	4 to 8 (≈ 7.15 to 14.3 µM)	32 to 64 (≈ 57.2 to 114 µM)	50 to 250	16 to 32 (≈ 28.6 to 57.2 µM)
CN1CCC[C@H]1C(=O)NC(C(=O)N[C@H]1Cc2cccc(C(=O)O)c2OB1O)c1ccc(P(=O)(O)O)cc1 (some centres unmarked) [Example 66]	32 to 64 (≈ 60.2 to 120 µM)	8 to 16 (≈ 15.1 to 30.1 µM)	> 128	> 128	16 to 32 (≈ 30.1 to 60.2 µM)	16 to 32 (≈ 30.1 to 60.2 µM)	16 to 32 (≈ 30.1 to 60.2 µM)	4 to 8 (≈ 7.53 to 15.1 µM)	> 128	32 to 64 (≈ 60.2 to 120 µM)	> 128	16 to 32 (≈ 30.1 to 60.2 µM)	4 to 8 (≈ 7.53 to 15.1 µM)	32 to 64 (≈ 60.2 to 120 µM)	10 to 50	16 to 32 (≈ 30.1 to 60.2 µM)
O=C(O)c1cccc2c1OB(O)[C@@H](NC(=O)C(NC(=O)C(F)(F)F)c1ccc(P(=O)(O)O)cc1)C2 (stereo partly drawn) [Example 172, (3R)-2-hydroxy-3-(2-(4-phosphonophenyl)-2-(2,2,2-trifluoroacetamido)acetamido)-3,4-dihydro-2H-benzo[e][1,2]oxaborinine-8-carboxylic acid]	> 128	32 to 64 (≈ 62 to 124 µM)	> 128	> 128	16 to 32 (≈ 31 to 62 µM)	16 to 32 (≈ 31 to 62 µM)	16 to 32 (≈ 31 to 62 µM)	4 to 8 (≈ 7.75 to 15.5 µM)	> 128	> 128	> 128	16 to 32 (≈ 31 to 62 µM)	4 to 8 (≈ 7.75 to 15.5 µM)	32 to 64 (≈ 62 to 124 µM)	50 to 250	16 to 32 (≈ 31 to 62 µM)
O=C(O)c1cccc2c1OB(O)[C@@H](NC(=O)[C@H](NC(=O)[C@@H]1CCCN1)c1ccc(P(=O)(O)O)cc1)C2 [Example 173, (R)-2-hydroxy-3-((R)-2-(4-phosphonophenyl)-2-((S)-pyrrolidine-2-carboxamido)acetamido)-3,4-dihydro-2H-benzo[e][1,2]oxaborinine-8-carboxylic acid]	32 to 64 (≈ 61.9 to 124 µM)	8 to 16 (≈ 15.5 to 30.9 µM)	32 to 64 (≈ 61.9 to 124 µM)	> 128	16 to 32 (≈ 30.9 to 61.9 µM)	16 to 32 (≈ 30.9 to 61.9 µM)	16 to 32 (≈ 30.9 to 61.9 µM)	4 to 8 (≈ 7.73 to 15.5 µM)	> 128	32 to 64 (≈ 61.9 to 124 µM)	> 128	16 to 32 (≈ 30.9 to 61.9 µM)	4 to 8 (≈ 7.73 to 15.5 µM)	32 to 64 (≈ 61.9 to 124 µM)	10 to 50	16 to 32 (≈ 30.9 to 61.9 µM)
O=C(O)c1cccc2c1OB(O)[C@@H](NC(=O)C(NC(=O)c1ccc[nH]c1=O)c1ccc(P(=O)(O)O)cc1)C2 (stereo partly drawn) [Example 174, (3R)-2-hydroxy-3-(2-(2-oxo-1,2-dihydropyridine-3-carboxamido)-2-(4-phosphonophenyl)acetamido)-3,4-dihydro-2H-benzo[e][1,2]oxaborinine-8-carboxylic acid]	32 to 64 (≈ 59.1 to 118 µM)	2 to 4 (≈ 3.7 to 7.39 µM)	> 128	> 128	16 to 32 (≈ 29.6 to 59.1 µM)	16 to 32 (≈ 29.6 to 59.1 µM)	16 to 32 (≈ 29.6 to 59.1 µM)	1 to 2 (≈ 1.85 to 3.7 µM)	> 128	> 128	> 128	16 to 32 (≈ 29.6 to 59.1 µM)	1 to 2 (≈ 1.85 to 3.7 µM)	8 to 16 (≈ 14.8 to 29.6 µM)	10 to 50	4 to 8 (≈ 7.39 to 14.8 µM)
